Entries after “also recorded” stand apart in the source; their conditions may differ.
Columns and labels:
bee colonies = assay: 3rd test in the hives: winter mortality of colonies, California 2019; format: in vivo, bees; conditions: single dose 4 mg per hive, 25-28 Oct. 2019, counted Jan. 7, 2020; 26 of 75 lost; control hives 61.8%
Protocol: A treatment campaign was carried out in the autumn-winter in apiaries located in California, near San Francisco. This region is particularly vulnerable to winter mortality of bee colonies which can reach as high as 80% in some years.
151 hives, distributed over 6 different apiaries in California to the south of San Francisco were selected. The bees were of different types: Wildflower (VSH-Italian), Beeweaver, Carniolan Californian Bee (Pope Canyon), Californian bee Tom and Italian Californian bee (Sam).
The hives were Langstroth 2 body type hives (15 frames compared to 10 for Dadant hives in Europe).
2019 by syringe in the form of a concentrated aqueous solution (8 g/L) in a sugar syrup into the feeding frame. 0.5 mL of this solution was introduced and dispersed in 3.5 liters of sugar syrup at 65% sugar and introduced into the hive. […] The control hives only received sugar syrup.
The surviving colonies were counted on Jan. 7, 2020. A total of 73 colonies out of the initial 151 died, that is an overall mortality of 48.3%.

bees = assay: Toxicity study on bees (lifespan of caged bees); format: in vivo
Protocol: Fifty newly hatched bees (age=1 day) were placed in a special cage with a wax strip, water and food, and were kept in the laboratory oven at a constant temperature of 33° C. and 50% humidity. […] The consumption of water and food was checked every day. Dead bees were counted and removed. For statistical reasons, the experiments were repeated up to 3 times if necessary.

O.O.O.O.O.O.O=C([O-])CN(CCN(CC(=O)[O-])CC(=O)[O-])CC(=O)[O-].[Li+].[Li+].[O]=[Mo+]12[O][Mo+]1(=[O])[O]2 [Li—Mo2O4-EDTA, Li2[Mo2O4 (EDTA)]·6H2O]
Winter mortality of colonies (bee colonies): 34.7%

O.O.O.O.O.O=C([O-])CN(CCN(CC(=O)[O-])CC(=O)[O-])CC(=O)[O-].[Na+].[Na+].[O]=[Mo+]12[O][Mo+]1(=[O])[O]2 [Na—Mo2O4-EDTA, Na2[Mo2O4 (EDTA)]·5H2O]
Survival of caged bees versus control group (bees; 2 mg/L in sucrose solution, p>0.05, χ2=3.36): no significant difference; also recorded: does not induce bee mortality
Survival of caged bees versus control group (bees; 20 mg/L in sucrose solution, p>0.05, χ2=0.04): no significant difference; also recorded: does not induce bee mortality

— patent publication US12582721B2, “Molybdenum-based feed supplement for bees” (UNIVERSITE DE VERSAILLES—SAINT-QUENTIN-EN-YVELINES, priority 2020, dated 2026)
